Data: ChEMBL document CHEMBL1146458, “Five new maleic and succinic acid derivatives from the mycelium of Antrodia camphorata and their cytotoxic effects on LLC tumor cell line” (2004)
Converted amounts (≈) assume the structure as drawn.

Assay: Cytotoxicity against mouse LLC cells after 48 hrs by SRB assay
Type: functional
Conditions: Lewis lung carcinoma, read-out: ED50 (the source's name)

Point of comparison: `CC(C)=CCOc1ccc(C2=C(CC(C)C)C(=O)N(O)C2=O)cc1`, EC50 7.5 µg/mL (≈ 22.8 µM). Against it:
- CC(C)=CCOc1ccc(C2=C(CC(C)C)C(=O)OC2=O)cc1 — higher, > 20 µg/mL
- CC(C)=CCOc1ccc(C2=C(CC(C)C)C(=O)NC2=O)cc1 — 2.1-fold lower, 3.6 µg/mL (≈ 11.5 µM)
- CC(C)=CCOc1ccc([C@H]2C(=O)N(O)C(=O)[C@@H]2CC(C)C)cc1 (relative stereo) — higher, > 10 µg/mL
- COc1cccc2c1C(=O)c1c(O)c3c(c(O)c1C2=O)C[C@@](O)(C(=O)CO)C[C@@H]3O[C@H]1C[C@H](N)[C@H](O)[C@H](C)O1 [DOXORUBICIN] — 54-fold lower, 0.14 µg/mL (≈ 0.258 µM)
